We go through two substances from patent publication US8071569B2, “Oxidized heparin fractions and their use in inhibiting angiogenesis” (priority 2002, dated 2011).

Assay [1] has as its system Human umbilical vein endothelial cells (HUVEC). The assay can be described thus: Inhibition of FGF2-stimulated endothelial cell tube formation on Matrigel. It counts as cell-based. The following applies: FGF2 alone 100 ng/ml, overnight. The protocol:
Differentiation by endothelial cells was examined using a method developed by Grant et al. (Grant et al., In Vitro Cell Dev. Biol., 27A:327-336 (1991), which is hereby incorporated by reference in its entirety). Matrigel® matrix, phenol-red free (commercially available from Becton Dickinson, Bedford, Mass.) was thawed overnight at 4° C. Using cold pipette tips, 3.0 mg/well of Matrigel® matrix was placed in a cold twenty-four-multiwell plate (Falcon). Matrigel® matrix was allowed to polymerize during incubation at 37° C. for 30 minutes.
Human umbilical vein endothelial cells (HUVEC) were maintained at 37° C. with 5% CO2 and 95% humidity in endothelial cell growth medium with 2% fetal bovine serum (EGM). […]
Subsequently, the medium was aspirated and cells were fixed and stained using a modified HEMA-3 stain kit. Digital images of micro-titer well sections were collected using a DKC5000 3-CCD color video camera system (Toshiba America, New York, N.Y.) and analyzed using Image-Pro Plus software (Media Cybernetics, Silver Spring, Md.). The area and major axis length of stained cells having a tubular morphology was measured on the Matrigel® matrix surface (Becton Dickinson, Bedford, Pa.) counted from 5 images/well.

The test system of assay [2] is chick chorioallantoic membrane (CAM). Description: FGF2-induced neovascularization on the chick chorioallantoic membrane (CAM). The following applies: FGF2 alone (filter disk, 1 μg/mL). It counts as in vivo. The protocol: In vivo neovascularization was examined by the method previously described by Auerbach et al. (Auerbach et al., J. Dev. Biol., 41:391-394 (1974), which is hereby incorporated by reference in its entirety). Ten-day old embryos were purchased from Spafas, Inc. (Preston, Conn.) and were incubated at 37° C. with 55% relative humidity. In the dark with the help of a candling lamp, a small hole was punctured in the shell concealing the air sac with a hypodermic needle. A second hole was punctured in the shell on the broadside of the egg directly over an avascular portion of the embryonic membrane, as observed during candling. A false air sac was created beneath the second hole by the application of negative pressure to the first hole, which caused the chorioallantoic membrane (CAM) to separate from the shell. […]
CAM tissue directly beneath FGF2-saturated filter disk was resected from embryos treated 48 hours prior with test compound or control. […] Digital images of CAM sections adjacent to filters were collected using a 3-CCD color video camera system (Toshiba America, New York, N.Y.) and analyzed using Image-Pro Plus software (Media Cybernetics, Silver Spring, Md.). Table 4 contains the number of vessel branch points contained in a circular region equal to the area of a filter disk counted for each section.

Assay [3] has as its system Colon tumor. Description: CAM tumor implant model, colon tumor. It is filed as in vivo, chick. The settings on record: 0.01 mg single dose over 7 days, initial implant 45 ± 5 mg, n = 8. The procedure:
Ten million tumor cells were placed on the surface of each CAM and were cultured for one week. The resulting tumors were excised and cut into 50 mg fragments. These fragments were placed on additional CAMs and treated topically or systemically by intravenous injection the following day with the test agents. […] Each treatment group incorporated at least ten tumors per experiment. Tumors were then excised from the egg and tumor weights were determined for each tumor.

For the substance “FGF2: recombinant human fibroblast growth factor basic, angiogenic stimulus”, in assay [1], the “Cell Tube Formation (area, mm^2)” value worked out at 2.50 ± 0.28 mm^2 and the “Cell Tube Formation (length, mm)” value was determined as 79.83 ± 8.66 mm. Moreover, in assay [2], the “Average # of Branch Points” value was 264 + 18.

Regarding “r-TFPI: r-tissue factor pathway inhibitor”, the “Mean tumor weight (mg) ± SEM” value in assay [3] is 38 ± 8 mg.
